Results as given in BindingDB's records for doi:10.1016/S0960-894X(01)80753-8 (1993).

These molecules were tested against Platelet-activating factor receptor (Oryctolagus cuniculus) (assay: Inhibition of [3H]PAF binding to rabbit platelet membranes).

Compared with `O=C(c1ccccc1)c1cccc(NC(=O)[C@@H]2OC(=O)N3[C@@H](c4cccnc4)SC[C@@H]23)c1` [(1R,5R,7aR)-3-Oxo-5-pyridin-3-yl-dihydro-thiazolo[3,4-c]oxazole-1-carboxylic acid (3-benzoyl-phenyl)-amide], `O=C(c1ccccc1)c1cccc(NC(=O)[C@@H]2OC(=O)N3[C@H](c4cccnc4)SC[C@@H]23)c1` [(1R,5S,7aR)-3-Oxo-5-pyridin-3-yl-dihydro-thiazolo[3,4-c]oxazole-1-carboxylic acid (3-benzoyl-phenyl)-amide] is 2.1-fold higher in Ki: 1.2 µM for the first, 2.5 µM for the second.

Compared with `O=C(c1ccccc1)c1cccc(NC(=O)[C@H]2OC(=O)N3[C@@H](c4cccnc4)SC[C@@H]23)c1` [(1S,5R,7aR)-3-Oxo-5-pyridin-3-yl-dihydro-thiazolo[3,4-c]oxazole-1-carboxylic acid (3-benzoyl-phenyl)-amide], `O=C(c1ccccc1)c1cccc(NC(=O)[C@H]2OC(=O)N3[C@H](c4cccnc4)SC[C@@H]23)c1` [(1S,5S,7aR)-3-Oxo-5-pyridin-3-yl-dihydro-thiazolo[3,4-c]oxazole-1-carboxylic acid (3-benzoyl-phenyl)-amide] is 6.2-fold higher in Ki: 0.024 µM for the first, 0.15 µM for the second.

In the case of `O=C(c1ccccc1)c1cccc(NC(=O)[C@@H]2CSC(c3cccnc3)N2)c1` (stereo partly drawn) [(R)-2-Pyridin-3-yl-thiazolidine-4-carboxylic acid (3-benzoyl-phenyl)-amide], the Ki is reported as 0.005 µM.
